Measurements published in paper PMC12010937, “Evaluation of FXR Activity in Pollutants Identified in Sewage Sludge and Subsequent in Vitro and in Vivo Characterization of Metabolic Effects of Triphenyl Phosphate” (Environmental Health Perspectives, 2025).
Values joined by “and” are separate entries in the source; they are usually repeats but may differ in a detail not shown here. Equal entries are not always repeated. Structures can show the parent of a compound that is named as a salt. Where two headings read alike, the source gives them in different places. Blank lines part the entries; values can stand above or below the molecule they belong to.

Columns and labels:
[1] = biological target: T1, human FXR-LBD (GST-FXR-LBD) (Homo sapiens, UniProt Q96RI1); assay: HTRF coactivator recruitment assay, antagonist mode (in the presence of 50 μM CDCA); assay type: biochemical; conditions: for Relative activity, antagonist mode: 50 μM compound in the presence of 50 μM CDCA, standardized against positive control DY268 (50 μM = 100%); for activity at 0.98 µM / activity at 1.95 µM / activity at 3.9 µM / activity at 7.8 µM / activity at 31.25 µM / activity at 62.5 µM / activity at 125 µM / activity at 250 µM / activity at […]: read-out: Relative antagonist activity (%); for IC50: read-out: IC50, inhibition of CDCA-induced coactivator recruitment to FXR
T1 construct: the human FXR-LBD (residues 234–472) was expressed as a GST fusion protein GST-FXR-LBD; made in house; host or cells: E. coli BL21(DE3)
T1 sequence (Q96RI1 234-472 isoform Q96RI1-2): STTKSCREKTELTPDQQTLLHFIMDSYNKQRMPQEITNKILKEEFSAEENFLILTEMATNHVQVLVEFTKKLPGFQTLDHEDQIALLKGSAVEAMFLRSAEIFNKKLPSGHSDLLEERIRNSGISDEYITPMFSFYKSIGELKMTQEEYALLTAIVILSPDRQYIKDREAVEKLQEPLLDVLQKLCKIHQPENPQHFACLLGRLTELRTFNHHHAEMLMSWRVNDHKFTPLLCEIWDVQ

[2] = biological target: T1, human FXR-LBD (GST-FXR-LBD); assay: HTRF coactivator recruitment assay, agonist mode; assay type: biochemical
[3] = biological target: T2, FXR (pCDNA3.1-hFXR, FXRE-luc) (Homo sapiens, UniProt Q96RI1); assay: cell-based; assay type: cell-based
T2 construct: host or cells: HEK 293T
T2 sequence (Q96RI1 1-486): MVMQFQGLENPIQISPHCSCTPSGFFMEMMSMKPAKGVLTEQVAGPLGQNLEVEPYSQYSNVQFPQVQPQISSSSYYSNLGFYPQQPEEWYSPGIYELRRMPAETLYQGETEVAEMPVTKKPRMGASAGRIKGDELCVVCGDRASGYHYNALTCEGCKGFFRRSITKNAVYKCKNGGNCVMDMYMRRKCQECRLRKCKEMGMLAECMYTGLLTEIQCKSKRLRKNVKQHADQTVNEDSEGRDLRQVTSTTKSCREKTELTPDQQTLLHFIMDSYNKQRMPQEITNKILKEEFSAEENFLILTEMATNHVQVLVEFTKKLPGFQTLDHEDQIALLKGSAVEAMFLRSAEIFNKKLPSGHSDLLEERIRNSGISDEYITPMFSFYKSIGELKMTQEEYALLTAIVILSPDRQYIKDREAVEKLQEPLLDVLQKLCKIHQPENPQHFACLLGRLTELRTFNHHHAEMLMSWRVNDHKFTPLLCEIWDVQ

[4] = 0.98 μM compound + 50 μM CDCA, replicates
[5] = 1.95 μM compound + 50 μM CDCA, replicates
[6] = 3.90 μM compound + 50 μM CDCA, replicates
[7] = 7.80 μM compound + 50 μM CDCA, replicates
[8] = 31.25 μM compound + 50 μM CDCA, replicates
[9] = 62.50 μM compound + 50 μM CDCA, replicates
[10] = 125.00 μM compound + 50 μM CDCA, replicates
[11] = 250.00 μM compound + 50 μM CDCA, standardized to DMSO and 50 μM CDCA, replicates
[12] = […] compound + 50 μM CDCA, replicates
[13] = 10 μM compound in the presence of 50 μM CDCA, DMSO 0%, 50 μM CDCA 100%, HEK 293T, replicates
[14] = 25 μM compound in the presence of 50 μM CDCA, DMSO 0%, 50 μM CDCA 100%, HEK 293T, replicates
[15] = HEK-293T, read-out: Relative luciferase activity (%)
[16] = 50 μM compound, standardized against positive control CDCA (50 μM = 100%)
[17] = 10 μM and 25 μM, in the presence of 50 μM CDCA, HEK 293T

SMILES: O=C(Nc1ccc(Cl)cc1)Nc1ccc(Cl)c(Cl)c1 [TCC, triclocarban]
Relative activity, antagonist mode [1]: 10.80%
Relative activity, agonist mode [2]: 0.44%

activity at 0.01 µM ([3]; HEK-293T, 0.01 μM, dose-response, replicates, read-out: Relative luciferase activity (%)): 96.6%
activity at 0.1 µM ([3]; HEK-293T, 0.1 μM, dose-response, replicates, read-out: Relative luciferase activity (%)): 81%
activity at 0.5 µM ([3]; HEK-293T, 0.5 μM, dose-response, replicates, read-out: Relative luciferase activity (%)): 81%
activity at 1 µM ([3]; HEK-293T, 1 μM, dose-response, replicates, read-out: Relative luciferase activity (%)): 79.6%
activity at 5 µM ([3]; HEK-293T, 5 μM, dose-response, replicates, read-out: Relative luciferase activity (%)): 66.4%
activity at 10 µM ([3]; HEK-293T, 10 μM, dose-response, replicates, read-out: Relative luciferase activity (%)): 53.9%
activity at 25 µM ([3]; HEK-293T, 25 μM, dose-response, replicates, read-out: Relative luciferase activity (%)): 30.5%
activity at 50 µM ([3]; HEK-293T, 50 μM, dose-response, replicates, read-out: Relative luciferase activity (%)): 29.9%
SMILES: C/C=C1\C(=O)C[C@H]2[C@@H]3CCC4=CC(=O)CC[C@]4(C)[C@H]3CC[C@]12C [GS, guggulsterone]

SMILES: CCCCC(CC)COC(=O)c1ccccc1C(=O)OCC(CC)CCCC (centres unmarked) [DEHP, bis(2-ethylhexyl) phthalate]
Relative activity, antagonist mode [1]: 4.48%
Relative activity, agonist mode [2]: 0.27%

SMILES: CCCCCCCC/C=C\CCCCCCCC(=O)NCCO [OEA, oleoyl ethanolamide]
activity at 0.98 µM [1, 4]: 106%
activity at 1.95 µM [1, 5]: 114%
activity at 3.9 µM [1, 6]: 110%
activity at 7.8 µM [1, 7]: 110%
activity at 31.25 µM [1, 8]: 102%
activity at 62.5 µM [1, 9]: 101%
activity at 125 µM [1, 10]: 96.2%
activity at 250 µM [1, 11]: 89.5%
activity at […] [1, 12]: 104%
IC50 [1]: 34 µM
Relative activity, agonist mode [2]: 0.00%
Relative luciferase activity (%) [3, 13]: 99.0% and 100.1% and 128.0%
Relative luciferase activity (%) [3, 14]: 96.5% and 110.1%
activity at 25 µM ([3]; HEK-293T, 25 μM compound in the presence of 50 μM CDCA, DMSO 0%, 50 μM CDCA 100%, HEK 293T, replicates, read-out: Relative luciferase activity (%)): 110%

SMILES: N#Cc1nn(-c2c(Cl)cc(C(F)(F)F)cc2Cl)c(N)c1S(=O)(=O)C(F)(F)F [FIP-S, fipronil sulfone]
Relative activity, antagonist mode [1]: 13.98%
Relative activity, agonist mode [2]: 2.06%

SMILES: CC(=O)c1cc2c(cc1C)C(C)(C)C(C)CC2(C)C (centres unmarked) [AHTN, tonalid]
activity at 1.95 µM [1, 5]: 96.2%
activity at 3.9 µM [1, 6]: 93.9%
activity at 31.25 µM [1, 8]: 80.9%
Relative activity, antagonist mode [1]: 48.54%
activity at 62.5 µM [1, 9]: 61.4%
activity at 250 µM [1, 11]: 31.2%
IC50 [1]: 59.5 µM
activity at 0.98 µM [1]: 93.5%
activity at 7.8 µM [1]: 94.1%
activity at 125 µM [1]: 41.4%
activity at […] [1]: 89.3%
Relative activity, agonist mode [2]: 2.19%
Luciferase activity compared with DMSO control (in words) [3]: significantly less luciferase activity
activity at 25 µM [3, 15]: 40.1%

Relative activity, antagonist mode [1]: 12.58%
Relative activity, agonist mode [2, 16]: 2.49%
SMILES: CCCCOC(=O)CC(CC(=O)OCCCC)(OC(C)=O)C(=O)OCCCC [ATBC, acetyl tributyl citrate]

Relative antagonist activity (%) [1, 4]: 83.56% and 97.08%
activity at 0.98 µM [1, 4]: 100%
Relative antagonist activity (%) [1, 5]: 96.79% and 93.64%
activity at 1.95 µM [1, 5]: 101%
Relative antagonist activity (%) [1, 6]: 97.17% and 94.87%
activity at 3.9 µM [1, 6]: 94.6%
Relative antagonist activity (%) [1, 7]: 92.66% and 89.45%
activity at 7.8 µM [1, 7]: 91%
Relative antagonist activity (%) [1, 8]: 63.55% and 62.84%
activity at 31.25 µM [1, 8]: 61.1%
Relative activity, antagonist mode [1]: 80.64%
Relative antagonist activity (%) [1, 9]: 18.58% and 19.89%
activity at 62.5 µM [1, 9]: 20.8%
Relative antagonist activity (%) [1, 10]: -1.08% and -0.91% and -0.84%
Relative antagonist activity (%) [1, 11]: -2.04% and -2.11% and -2.16%
activity at […] [1, 12]: 82%
IC50 [1]: 40.6 µM
Relative activity, agonist mode [2, 16]: 1.60%
Luciferase activity compared with DMSO control (in words) [3, 17]: significantly less luciferase activity
Relative luciferase activity (%) [3, 13]: 29.3% and 36.3%
Relative luciferase activity (%) [3, 14]: 36.4% and 33.0% and 15.9%
activity at 10 µM ([3]; HEK-293T, 10 μM compound in the presence of 50 μM CDCA, DMSO 0%, 50 μM CDCA 100%, HEK 293T, replicates, read-out: Relative luciferase activity (%)): 26.9%
SMILES: O=C1Nc2ccc(Cl)cc2[C@@](C#CC2CC2)(C(F)(F)F)O1 [EFV, efavirenz]

Relative activity, antagonist mode [1]: 3.94%
Relative activity, agonist mode [2, 16]: 0.57%
SMILES: CCCCCCCCCCCCCCCC(=O)NCCO [PEA, palmitoyl ethanolamide]

SMILES: CCCCC(CC)COP(=O)(OCC(CC)CCCC)OCC(CC)CCCC (centres unmarked) [TEHP, tris(2-ethylhexyl) phosphate]
Relative activity, antagonist mode [1]: 17.25%
Relative activity, agonist mode [2]: 0.00%

Relative activity, antagonist mode [1]: 100.00%
Relative luciferase activity (%) ([3]; 0.001 μM, dose-response, replicates): 91.11% and 96.02% and 92.43%
Relative luciferase activity (%) ([3]; 0.01 μM, dose-response, replicates): 84.90% and 84.00% and 97.07%
Relative luciferase activity (%) ([3]; 0.05 μM, dose-response, replicates): 69.60% and 78.44% and 89.94%
Relative luciferase activity (%) ([3]; 0.1 μM, dose-response, replicates): 57.18% and 63.12% and 63.84%
Relative luciferase activity (%) ([3]; 0.5 μM, dose-response, replicates): 12.17% and 13.75% and 19.14%
Relative luciferase activity (%) ([3]; 1 μM, dose-response, replicates): -1.72% and -0.13% and 6.23%
Relative luciferase activity (%) ([3]; 5 μM, dose-response, replicates): -18.25% and -19.25% and -13.03%
Relative luciferase activity (%) ([3]; 10 μM, dose-response, replicates): -15.95% and -18.33% and -14.15%
Rate of FXR inhibition at the maximum exposure concentration ([3]; HEK 293T DLR assay, maximum exposure concentration): 116.14%
IC50 ([3]; HEK 293T cell-based DLR assay, read-out: IC50, inhibition of FXR transcriptional activity): 0.25 µM
SMILES: COc1cccc(Cn2cc(C(=O)Nc3ccc(C)c(S(=O)(=O)N4CCOCC4)c3)c(-c3ccc(C)cc3)n2)c1 [DY268]

SMILES: Oc1cc(Cl)ccc1Oc1ccc(Cl)cc1Cl [TLS, triclosan]
activity at 1.95 µM [1, 5]: 91.4%
activity at 3.9 µM [1, 6]: 87.5%
activity at 31.25 µM [1, 8]: 34.6%
Relative activity, antagonist mode [1]: 65.82%
activity at 62.5 µM [1, 9]: 4.81%
IC50 [1]: 28.2 µM
activity at 0.98 µM [1]: 91%
activity at 7.8 µM [1]: 79.8%
activity at […] [1]: 61.3%
Relative activity, agonist mode [2]: 13.3% and 13.26%
Luciferase activity compared with DMSO control (in words) [3]: significantly less luciferase activity
activity at 10 µM [3, 15]: 24.8%

Relative activity, antagonist mode [1]: 6.36%
Relative activity, agonist mode [2, 16]: 0.19%
SMILES: CC(C)(C)c1cc(C=O)cc(C(C)(C)C)c1O [BHT-C, 3,5-Ditert-butyl-4-hydroxybenzaldehyde]

SMILES: CC1COC(=O)c2cc3c(cc21)C(C)(C)C(C)C3(C)C (centres unmarked) [GAX, galaxolidone]
Relative activity, antagonist mode [1]: 14.46%
Relative activity, agonist mode [2]: 0.32%

Relative activity, antagonist mode [1]: 18.06%
Relative activity, agonist mode [2, 16]: 0.085%
SMILES: CC(C)(C)CC(C)(C)c1ccc(O)c(-n2nc3ccccc3n2)c1 [UV329, octrizole]

SMILES: Clc1ccc(COC(Cn2ccnc2)c2ccc(Cl)cc2Cl)c(Cl)c1 (centres unmarked) [MCZ, miconazole]
activity at 0.98 µM [1, 4]: 101%
activity at 1.95 µM [1, 5]: 96.5%
activity at 3.9 µM [1, 6]: 92.9%
activity at 7.8 µM [1, 7]: 77.8%
activity at 31.25 µM [1, 8]: 31.7%
activity at 62.5 µM [1, 9]: 15.9%
activity at 125 µM [1, 10]: 4.54%
activity at 250 µM [1, 11]: 2.51%
activity at […] [1, 12]: 61.6%
IC50 [1]: 20.5 µM
Relative activity, agonist mode [2, 16]: 0.00%
Luciferase activity compared with DMSO control (in words) [3, 17]: significantly less luciferase activity
Relative luciferase activity (%) [3, 13]: 93.6% and 60.3% and 85.8%
Relative luciferase activity (%) [3, 14]: 77.5% and 67.2% and 91.8%
